Reference: patent US20080009511A1, “Cancer treatment with compounds inhibiting PKC alpha” (priority 2004, published 2008)

Legend:
[1] = system: A431 human epidermoid carcinoma cells; assay: Cell viability assay (trypan blue dye exclusion), viable cells counted at day 6; assay type: cell-based; details: for Treated (cell number × 10^5): about 4×10^4 cells seeded, untreated 5.4 ± 0.4
Experimental: (§1) The following cancer cells were maintained in Dulbecco's modified Eagle medium (DMEM) supplemented with 10 percent bovine calf serum. Cells were seeded for 24 hours. Then they were treated with PKC inhibitors or left untreated. The cells were then collected periodically and evaluated using trypan blue dye exclusion to assess viability using the method described by C Y Chen, et al., in J. Biol. Chem. 273:16700-16709. Cultures containing about 4×10^4 cells were treated with 5 micromoles of Gö7874 (except that PC3 prostate cancer cells were treated with 10 micromoles) and the viable cells were counted at day 6. […] Cultures containing about 4×10^4 cells were treated with or without 10 micromoles of Gö6850 and the viable cells were counted at day 6. […] Cultures containing about 4×10^4 cells were treated with or without 10 micromoles of NGIC-I and the viable cells were counted at day 6. […] Cultures containing about 4×10^4 cells were treated with or without 10 micromoles of Ro31-7549 and the viable cells were counted at day 6. […] Cultures containing about 4×10^4 cells were treated with or without 10 micromoles of Ro31-8220 and the viable cells were counted at day 6. […] Cultures containing about 4×10^4 cells were treated with or without 10 micromoles of Ro31-8425 and the viable cells were counted at day 6. […] Cultures containing about 4×10^4 cells were treated with or without 10 micromoles of Ro31-0432 and the viable cells were counted at day 6.

[2] = system: AGS human gastric cancer cells; assay: as above; assay type: cell-based; details: for Treated (cell number × 10^5): about 4×10^4 cells seeded, untreated 2.4 ± 0.3
Experimental: as §1

[3] = system: H460 human lung cancer cells; assay: as above; assay type: cell-based; details: for Treated (cell number × 10^5): about 4×10^4 cells seeded, untreated 2.4 ± 0.2
Experimental: as §1

[4] = system: HT29 human colon cancer cells; assay: as above; assay type: cell-based; details: for Treated (cell number × 10^5): about 4×10^4 cells seeded, untreated 3.8 ± 0.4
Experimental: as §1

[5] = system: Hela human cervical cancer cells; assay: as above; assay type: cell-based; details: for Treated (cell number × 10^5): about 4×10^4 cells seeded, untreated 3.4 ± 0.4
Experimental: as §1

[6] = system: HepG2 human liver cancer cells; assay: as above; assay type: cell-based; details: for Treated (cell number × 10^5): about 4×10^4 cells seeded, untreated 4.2 ± 0.4
Experimental: as §1

[7] = system: Jurkat cells (a human acute T-cell leukemia cell line); assay: as above; assay type: cell-based; details: for Treated (cell number × 10^5): about 4×10^4 cells seeded, untreated 8.8 ± 0.4
Experimental: as §1

[8] = system: MDA-MB-468 human breast cancer cells; assay: as above; assay type: cell-based; details: for Treated (cell number × 10^5): about 4×10^4 cells seeded, untreated 6.1 ± 0.4
Experimental: as §1

[9] = system: NBT-II human bladder cancer cells; assay: as above; assay type: cell-based; details: for Treated (cell number × 10^5): about 4×10^4 cells seeded, untreated 2.9 ± 0.4
Experimental: as §1

[10] = system: PANC-1 human pancreatic carcinoma cells; assay: as above; assay type: cell-based; details: for Treated (cell number × 10^5): about 4×10^4 cells seeded, untreated 2.1 ± 0.3
Experimental: as §1

[11] = system: PC3 human prostate cancer cells; assay: as above; assay type: cell-based; details: 10 micromoles; for Treated (cell number × 10^5): about 4×10^4 cells seeded, untreated 7.1 ± 0.3
Experimental: as §1

U251 human glioma cells = assay: as above; assay type: cell-based; details: for Treated (cell number × 10^5): about 4×10^4 cells seeded, untreated 9.6 ± 0.5
Experimental: as §1

KB oral cancer cells = assay: as above; assay type: cell-based, human; details: for Treated (cell number × 10^5): about 4×10^4 cells seeded, untreated 3.8 ± 0.4
Experimental: as §1

U-937 lymphoma cells = assay: as above; assay type: cell-based, human; details: 5 micromoles
Experimental: Cells were seeded for 24 hours. Then they were treated with PKC inhibitors or left untreated. The cells were then collected periodically and evaluated using trypan blue dye exclusion to assess viability using the method described by C Y Chen, et al., in J. Biol. Chem. 273:16700-16709. Cultures containing about 4×10^4 cells were treated with 5 micromoles of Gö7874 (except that PC3 prostate cancer cells were treated with 10 micromoles) and the viable cells were counted at day 6.

[12] = system: 3Y1 rat fibroblast cells overexpressing EGF receptors (3Y1-EGFR cells); assay: EGF-induced cell transformation (transformed morphology); assay type: cell-based; details: 1 micromole; for cell apoptosis during co-treatment: co-treatment with 100 ng/ml EGF; for effect on EGF-induced transformed morphology: co-treatment with 100 ng/ml EGF for 48 hours
[13] = system: 3Y1 rat fibroblast cells overexpressing the epidermal growth factor receptor (EGFR); assay: Soft agar/cell transformation assay; assay type: cell-based; details: 1 micromole with EGF (100 ng/ml), in contrast to EGF alone
From the text: 1×10^3 3Y1 rat fibroblast cells overexpressing the epidermal growth factor receptor (EGFR) were suspended in top agar (consisting of 20 percent calf serum, 0.38 percent agar and the remainder DMEM) and overlaid onto bottom agar (DMEM, 20 percent calf serum and 0.7 percent agar) as reported by Sementchenko et al., in Onocgen 17:2883-2888.

human cancer cells = assay: Cell viability assay, summary over the panel of cancer cells; assay type: cell-based; details: 10 micromoles; day 6; cell lines not named as going to apoptosis
Experimental: The following cancer cells were maintained in Dulbecco's modified Eagle medium (DMEM) supplemented with 10 percent bovine calf serum. Cells were seeded for 24 hours. Then they were treated with PKC inhibitors or left untreated. The cells were then collected periodically and evaluated using trypan blue dye exclusion to assess viability using the method described by C Y Chen, et al., in J. Biol. Chem. 273:16700-16709. Cultures containing about 4×10^4 cells were treated with or without 10 micromoles of Gö6850 and the viable cells were counted at day 6. […] Cultures containing about 4×10^4 cells were treated with or without 10 micromoles of NGIC-I and the viable cells were counted at day 6. […] Cultures containing about 4×10^4 cells were treated with or without 10 micromoles of Ro31-7549 and the viable cells were counted at day 6. […] Cultures containing about 4×10^4 cells were treated with or without 10 micromoles of Ro31-8220 and the viable cells were counted at day 6. […] Cultures containing about 4×10^4 cells were treated with or without 10 micromoles of Ro31-8425 and the viable cells were counted at day 6. […] Cultures containing about 4×10^4 cells were treated with or without 10 micromoles of Ro31-0432 and the viable cells were counted at day 6.

[14] = 10 micromoles, growth vs untreated

## COc1ccc2c(c1)c1c3c(c4c5ccccc5n(C)c4c1n2CC(O)CN(C)C)C(=O)NC3=O.Cl (centres unmarked) [Gö7874, 5,7(6H)-dione,13-[3-(dimethylamino)-2-hydroxypropyl]-12,13-dihydro-3-methoxy-12-methyl-5H-Indolo[2,3-a]pyrrolo[3,4-c]carbazole, monohydrochloride]
[1]; 5 micromoles
  cells that went to apoptosis after treatment: all
  Treated (cell number × 10^5): 0 × 10^5
[2]; 5 micromoles
  cells that went to apoptosis after treatment: all
  inhibition of cell proliferation: More than 60%
  Treated (cell number × 10^5): 0.8 × 10^5
[3]; 5 micromoles
  cells that went to apoptosis after treatment: all
  Treated (cell number × 10^5): 0 × 10^5
[4]; 5 micromoles
  cells that went to apoptosis after treatment: all
  Treated (cell number × 10^5): 0 × 10^5
[5]; 5 micromoles
  cells that went to apoptosis after treatment: all
  Treated (cell number × 10^5): 0 × 10^5
[6]; 5 micromoles
  cells that went to apoptosis after treatment: all
  Treated (cell number × 10^5): 0 × 10^5
[7]; 5 micromoles
  originally seeded cells survived (fraction, words): less than one third
  Treated (cell number × 10^5): 0.1 × 10^5
[8]; 5 micromoles
  cells that went to apoptosis after treatment: all
  Treated (cell number × 10^5): 0 × 10^5
[9]; 5 micromoles
  Treated (cell number × 10^5): 0 × 10^5
[10]; 5 micromoles
  cells that went to apoptosis after treatment: all
  Treated (cell number × 10^5): 0 × 10^5
[11]
  cells that went to apoptosis after treatment: all
  Treated (cell number × 10^5): 0 × 10^5
U251 human glioma cells; 5 micromoles
  cells that went to apoptosis after treatment: all
  Treated (cell number × 10^5): 0 × 10^5
KB oral cancer cells; 5 micromoles
  cells that went to apoptosis after treatment: all
  Treated (cell number × 10^5): 0 × 10^5
U-937 lymphoma cells
  cells that went to apoptosis after treatment: all
[12]
  cell apoptosis during co-treatment: without detected cell apoptosis
  effect on EGF-induced transformed morphology: partially blocked
[13]
  reduction of colony number in soft agar: 82%

## Cl.Cn1cc(C2=C(c3c4n(c5ccccc35)CCC(CN)C4)C(=O)NC2=O)c2ccccc21 (centres unmarked) [Ro31-8425]
[1]; 10 micromoles
  Treated (cell number × 10^5): 2.6 × 10^5
[1]; [14]
  % inhibiton: 52%
[2]; 10 micromoles
  cells that went to apoptosis upon treatment: all
  Treated (cell number × 10^5): 0 × 10^5
[2]; [14]
  % inhibiton: * (indicates the inhibitor causes significant cell death, and cell number is less than originally seeded cell number.)
[3]; 10 micromoles
  cells that went to apoptosis upon treatment: all
  Treated (cell number × 10^5): 0 × 10^5
[3]; [14]
  % inhibiton: * (indicates the inhibitor causes significant cell death, and cell number is less than originally seeded cell number.)
[4]; 10 micromoles
  Treated (cell number × 10^5): 0.6 × 10^5
[4]; [14]
  % inhibiton: 85%
[5]; 10 micromoles
  cells that went to apoptosis upon treatment: all
  Treated (cell number × 10^5): 0 × 10^5
[5]; [14]
  % inhibiton: * (indicates the inhibitor causes significant cell death, and cell number is less than originally seeded cell number.)
[6]; 10 micromoles
  Treated (cell number × 10^5): 0.4 × 10^5
[6]; [14]
  % inhibiton: 90%
[7]; 10 micromoles
  cells that went to apoptosis upon treatment: significant number
  Treated (cell number × 10^5): 0.3 × 10^5
[7]; [14]
  % inhibiton: * (indicates the inhibitor causes significant cell death, and cell number is less than originally seeded cell number.)
[8]; 10 micromoles
  cells that went to apoptosis upon treatment: significant number
  Treated (cell number × 10^5): 0.1 ± 0.05 × 10^5
[8]; [14]
  % inhibiton: * (indicates the inhibitor causes significant cell death, and cell number is less than originally seeded cell number.)
[9]; 10 micromoles
  cells that went to apoptosis upon treatment: significant number
  Treated (cell number × 10^5): 0.3 × 10^5
[9]; [14]
  % inhibiton: * (indicates the inhibitor causes significant cell death, and cell number is less than originally seeded cell number.)
[10]; 10 micromoles
  cells that went to apoptosis upon treatment: all
  Treated (cell number × 10^5): 0 × 10^5
[10]; [14]
  % inhibiton: * (indicates the inhibitor causes significant cell death, and cell number is less than originally seeded cell number.)
[11]
  Treated (cell number × 10^5): 3 × 10^5
[11]; growth vs untreated
  % inhibiton: 53%
U251 human glioma cells; 10 micromoles
  Treated (cell number × 10^5): 1.4 × 10^5
U251 human glioma cells; [14]
  % inhibiton: 85%
KB oral cancer cells; 10 micromoles
  cells that went to apoptosis upon treatment: all
  Treated (cell number × 10^5): 0 × 10^5
KB oral cancer cells; [14]
  % inhibiton: * (indicates the inhibitor causes significant cell death, and cell number is less than originally seeded cell number.)
Human cancer cells
  inhibition of growth in contrast to untreated cells, range over the other treated cancer cells: 52-90%
[12]
  cell apoptosis during co-treatment: without detected cell apoptosis
  effect on EGF-induced transformed morphology: partially blocked
[13]
  reduction of colony number in soft agar: 72%
